From patent publication US8252788B2, “Therapeutic compounds” (Allergan, Inc., priority 2008, dated 2012)

Key:
[1] = system: lashes and adjacent hairs; experiment: Observation of lashes and adjacent hairs in glaucoma patients treated with bimatoprost in one eye; type: in vivo
From the text: In the course of treating patients having glaucoma, treatment may only be appropriate in one eye. […] The lash appearance on the lids of the treated eyes would have appeared quite attractive if it represented a bilateral phenomenon. As a result of its asymmetric nature, the long lashes on one side could be construed as disturbing from a cosmetic standpoint. A systemic examination was preformed as a result of the asymmetric phenomenon. It soon became apparent that this altered appearance was not an isolated finding. […] Definite differences could be identified to varying degrees in the lashes and adjacent hairs of all patients who were taking the drug on a unilateral basis for longer than 6 months.
The changes in the lashes were apparent on gross inspection in several patients once attention was focused on the issue. In those with light colored hair and lashes, the differences were only seen easily with the aid of the high magnification and lighting capabilities of the slit lamp biomicroscope. In the course of glaucoma follow-up examination, attention is generally immediately focused on the eye itself. As a result of the high power magnification needed only one eye is seen at a time and the eye is seen at a high enough power that the lashes are not in focus. […]

normotensive dogs = experiment: In vivo intraocular pressure (IOP) test in normotensive dogs
Protocol: Title compounds H145 and H146 from above are tested in vivo to test its ability to reduce intraocular pressure. Compound H145 is tested in normotensive dogs.

[2] = system: laser-induced hypertensive monkeys; experiment: In vivo intraocular pressure (IOP) test in laser-induced hypertensive monkeys

SMILES | lash appearance in treated eye versus non-treated eye ([1]; glaucoma patient treated in one eye) | hair growth in treated versus control areas ([1]; multiple parameters of hair appearance, many subjects) | intraocular pressure (IOP) versus baseline (normotensive dogs) | IOP versus baseline [2]
CCNC(=O)CCC/C=C\C[C@@H]1[C@@H](/C=C/[C@@H](O)CCc2ccccc2)[C@H](O)C[C@@H]1O [bimatoprost] | longer, thicker, and fuller | stimulated | – | –
O=C(OCCN1CCOCC1)c1ccc(CCC[C@@H]2[C@@H](CSc3cc(Cl)cc(Cl)c3)[C@H](O)C[C@H]2Cl)s1 [Compound H146] | – | – | decreases from baseline | decreases from baseline
O=C(OCCO)c1ccc(CCC[C@@H]2[C@@H](CSc3cc(Cl)cc(Cl)c3)[C@H](O)C[C@H]2Cl)s1 [Compound H145] | – | – | decreases from baseline | decreases from baseline
O=C(OCCN1CCOCC1)c1ccc(CCC[C@@H]2[C@@H](CNc3cc(Cl)cc(Cl)c3)[C@H](O)C[C@H]2Cl)s1 [Compound H148] | – | – | decreases from baseline | decreases from baseline
O=C(OCCO)c1ccc(CCC[C@@H]2[C@@H](CNc3cc(Cl)cc(Cl)c3)[C@H](O)C[C@H]2Cl)s1 [Compound H147] | – | – | decreases from baseline | decreases from baseline
